Reference: PMC6639251, “Selective Kinase Inhibition Shows That Bur1 (Cdk9) Phosphorylates the Rpb1 Linker In Vivo” (Molecular and Cellular Biology, 2019)

Legend:
Ctk1/Cdk12 (Ctk1-IS) = target: T1, Ctk1/Cdk12 (Ctk1-IS) (Saccharomyces cerevisiae, UniProt Q03957, V197C/F260G); test: immunoblot of Rpb1 CTD Ser2P in yeast cells and in nuclear-extract elongation complexes; assay type: cell-based; conditions: covalent; engineered hole and cysteine in ATP pocket; 20 uM in cells 15 min 30 C; 250 nM in nuclear extract
T1 construct: allele integrated at the natural chromosomal locus; in living yeast and nuclear extract; HA3-tagged plasmid form (61 kDa) only for expression test
T1 sequence (Q03957 1-528 V197C/F260G): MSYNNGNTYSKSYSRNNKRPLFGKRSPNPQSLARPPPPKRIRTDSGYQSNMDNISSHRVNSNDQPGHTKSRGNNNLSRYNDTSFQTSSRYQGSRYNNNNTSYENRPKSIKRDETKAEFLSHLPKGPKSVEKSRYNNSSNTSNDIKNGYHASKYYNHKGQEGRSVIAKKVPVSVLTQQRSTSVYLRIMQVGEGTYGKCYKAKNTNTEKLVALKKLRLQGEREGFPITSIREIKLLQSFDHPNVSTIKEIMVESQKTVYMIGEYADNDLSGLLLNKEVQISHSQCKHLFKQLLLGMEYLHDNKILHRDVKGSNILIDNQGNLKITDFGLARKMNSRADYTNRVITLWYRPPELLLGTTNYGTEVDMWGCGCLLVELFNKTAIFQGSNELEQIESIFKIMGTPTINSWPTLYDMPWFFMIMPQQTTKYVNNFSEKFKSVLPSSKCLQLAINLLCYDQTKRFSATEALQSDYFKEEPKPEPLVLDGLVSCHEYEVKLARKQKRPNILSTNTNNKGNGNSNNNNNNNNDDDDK

Kin28/Cdk7 (Kin28-IS) = target: T2, Kin28/Cdk7 (Kin28-IS) (Saccharomyces cerevisiae, UniProt P06242, V21C/L83G); test: immunoblot of Rpb1 CTD phosphorylation in yeast cells and in nuclear-extract elongation complexes; assay type: cell-based; conditions: covalent; engineered hole and cysteine in ATP pocket; 20 uM in cells 15 min 30 C; 250 nM in nuclear extract
T2 construct: allele integrated at the natural chromosomal locus; in living yeast and nuclear extract, part of TFIIH; HA-tagged plasmid form (35 kDa) only for expression test
T2 sequence (P06242 1-306 V21C/L83G): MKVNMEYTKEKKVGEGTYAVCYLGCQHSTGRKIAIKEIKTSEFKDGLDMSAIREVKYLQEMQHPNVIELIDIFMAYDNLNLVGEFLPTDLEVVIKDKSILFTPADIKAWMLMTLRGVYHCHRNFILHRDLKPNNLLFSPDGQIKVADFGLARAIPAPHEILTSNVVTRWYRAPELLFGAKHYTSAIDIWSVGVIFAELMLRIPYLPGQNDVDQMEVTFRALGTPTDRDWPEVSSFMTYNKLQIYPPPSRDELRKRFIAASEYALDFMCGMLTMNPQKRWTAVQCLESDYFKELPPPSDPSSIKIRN

SMILES: Cc1ccc(-c2c(C(=O)CCl)n(CCCO)c3ncnc(N)c23)cc1 [CMK]
- immunoblot of Rpb1 CTD Ser2P in yeast cells and in nuclear-extract elongation co (Ctk1/Cdk12 (Ctk1-IS)): 15-min CMK treatment of Ctk1-IS cells caused very strong loss of Ser2P
- immunoblot of Rpb1 CTD phosphorylation in yeast cells and in nuclear-extract elo (Kin28/Cdk7 (Kin28-IS)): treatment of the Kin28-IS strain with CMK led to a significant drop in CTD Ser5P
